Results reported in BindingDB's records for doi:10.3109/14756360902797328 (Rheinische Friedrich-Wilhelms-Universitat Bonn, 2009).
pKi: −log10 of the molar value.

Assays:
Assay in all cases: Inhibition Assay
Cathepsin K = molecular target: T1, Cathepsin K (Homo sapiens, UniProt P43235); conditions: pH 5; 37 °C
T1 sequence (P43235 whole entry): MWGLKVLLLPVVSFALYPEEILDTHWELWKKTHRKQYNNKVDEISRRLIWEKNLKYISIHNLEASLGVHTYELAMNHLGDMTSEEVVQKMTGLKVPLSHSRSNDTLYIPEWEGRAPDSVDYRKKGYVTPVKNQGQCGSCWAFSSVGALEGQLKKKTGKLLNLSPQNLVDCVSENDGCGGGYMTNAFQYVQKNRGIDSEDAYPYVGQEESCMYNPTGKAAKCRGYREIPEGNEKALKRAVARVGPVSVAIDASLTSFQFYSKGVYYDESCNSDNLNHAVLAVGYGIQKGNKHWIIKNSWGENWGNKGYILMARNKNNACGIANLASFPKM
Protocol: (§1) Cathepsin enzyme activities were calculated from kinetic measurements performed by fluorimetric detection of the product 7-amino-4-methylcoumarin at 37 C in a stirred cuvette. The wavelengths for excitation and emission were 360nm and 440nm.

Cathepsin S = Cathepsin S (Homo sapiens, UniProt P25774); conditions: pH 6.5; 37 °C
Chain of Cathepsin S (P25774 whole entry): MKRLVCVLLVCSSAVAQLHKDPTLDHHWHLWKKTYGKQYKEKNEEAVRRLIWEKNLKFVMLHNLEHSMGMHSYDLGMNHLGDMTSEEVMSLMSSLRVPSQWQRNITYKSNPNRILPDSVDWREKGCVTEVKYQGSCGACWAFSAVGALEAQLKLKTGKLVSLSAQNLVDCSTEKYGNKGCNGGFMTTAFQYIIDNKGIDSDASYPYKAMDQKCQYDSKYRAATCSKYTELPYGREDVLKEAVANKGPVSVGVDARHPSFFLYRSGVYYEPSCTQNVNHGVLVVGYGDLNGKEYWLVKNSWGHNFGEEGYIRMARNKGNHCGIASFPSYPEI
Protocol: as §1

Procathepsin L = Procathepsin L (Bos taurus, UniProt P25975); conditions: pH 6; 37 °C
Chain of Procathepsin L (P25975 whole entry): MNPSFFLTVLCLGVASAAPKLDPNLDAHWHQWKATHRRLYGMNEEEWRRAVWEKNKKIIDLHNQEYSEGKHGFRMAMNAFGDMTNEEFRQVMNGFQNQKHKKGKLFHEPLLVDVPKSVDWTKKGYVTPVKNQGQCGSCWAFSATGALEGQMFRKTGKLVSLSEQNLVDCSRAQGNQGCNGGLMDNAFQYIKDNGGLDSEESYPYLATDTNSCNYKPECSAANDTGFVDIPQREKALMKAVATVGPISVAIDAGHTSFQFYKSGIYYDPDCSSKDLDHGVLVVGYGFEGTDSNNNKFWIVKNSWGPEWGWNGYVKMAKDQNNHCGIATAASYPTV
Protocol: as §1

Papain = molecular target: T2, Papain (Carica papaya, UniProt P00784); conditions: pH 6.5; 25 °C
T2 sequence (P00784 whole entry): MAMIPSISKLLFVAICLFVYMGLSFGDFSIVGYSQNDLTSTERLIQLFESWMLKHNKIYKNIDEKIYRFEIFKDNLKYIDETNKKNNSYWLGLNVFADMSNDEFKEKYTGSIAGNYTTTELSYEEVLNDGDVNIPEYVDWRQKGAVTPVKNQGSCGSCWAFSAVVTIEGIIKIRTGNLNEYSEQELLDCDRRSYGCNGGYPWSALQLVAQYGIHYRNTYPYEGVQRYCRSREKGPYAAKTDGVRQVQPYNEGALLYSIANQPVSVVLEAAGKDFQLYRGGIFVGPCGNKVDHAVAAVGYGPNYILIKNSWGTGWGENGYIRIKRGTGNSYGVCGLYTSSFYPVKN
Protocol: Papain enzyme activities were determined by spectrophotometric detection of the product p-nitroaniline at 25 C in a a multicell holder (parallel measurements for each single inhibitor determination) at a wavelength of 405 nm.

C[S+](C)CCC(C#N)NC(=O)[C@H](Cc1ccccc1)NC(=O)OC(C)(C)C (stereo partly specified) [Dipeptide nitrile, 8]
pKi (Cathepsin K): 5.42 | pKi (Cathepsin S): 6.14 | pKi (Procathepsin L): 6.28

CC(C)(C)OC(=O)N[C@@H](Cc1ccccc1)C(=O)N[C@H](C#N)CC#N [Dipeptide nitrile, 10]
pKi (Papain): 5.96 | pKi (Cathepsin K): 5.20 | pKi (Cathepsin S): 6.08 | pKi (Procathepsin L): 6.05

CSCCC(C#N)NC(=O)[C@H](Cc1ccccc1)NC(=O)OC(C)(C)C (stereo partly specified) [Dipeptide nitrile, 7]
pKi (Papain): 6.60 | pKi (Cathepsin K): 5.44 | pKi (Cathepsin S): 6.19 | pKi (Procathepsin L): 6.57
